Measurements from patent US20100286145A1, “ISOPHTHALAMIDE DERIVATIVES INHIBITING BETA-SECRETASE ACTIVITY” (CoMentis, Inc., priority 2007, published 2010).
Read-outs that look alike come from different tables or passages of the source.

Target: memapsin 2 (Homo sapiens, UniProt P56817)
Experiment: Inhibition of memapsin 2 beta-secretase activity (fluorogenic substrate FS-2)
Format: biochemical
Details: memapsin 2, pH 4, 37° C., read-out: M2Ki
Method: Potency of compounds were determined by measurement of their inhibition of memapsin 2 activity toward a fluorescent substrate. Kinetic inhibition experiments were performed using the procedure as described in Ermolieff, et al. (Biochemistry 39:12450-12456 (2000), the teachings of which are incorporated hereby in their entirety). Briefly, assays were performed at pH 4, 37° C., by pre-incubation of memapsin 2 enzyme with compound for 20 minutes. Activity measurements were initiated by addition of a fluorogenic substrate FS-2 (Bachem Americas, Torrance, Calif.) MCA-SEVNLDAEFR-DNP (SEQ ID NO.: 2). The substrate was derived from 10 amino acids of the human amyloid precursor protein (APP), with the Swedish variant amino acids at the beta-secretase cleavage site. The terminal amino acid was modified from arginine to lysine to facilitate derivatization with a functional group for detection by autofluorescence. The amino acid sequence of the “core” peptide of the substrate is SEVNLDAEFK (SEQ ID NO.: 3). The amino terminus was derivatized with (7-methoxycoumarin-4-yl)acetyl (MCA), and the epsilon amine of the lysine side chain of the terminal residue (K in sequence SEVNLDAEFK (SEQ ID NO.: 3)) was derivatized with 2,4-dinitorphenyl (DNP).
Fluorescent signal increase over time was measured as a rate of hydrolysis of the peptide substrate. Inhibition of hydrolytic rate was expressed relative to uninhibited controls and fit to a model for tight-binding inhibitors (J. Bieth, in “Proteinase Inhibitors,” Bayer Symposium V, 463-469, 1974, which is herein incorporated by reference for all purposes in its entirety).

Chain of memapsin 2 (P56817 46-501): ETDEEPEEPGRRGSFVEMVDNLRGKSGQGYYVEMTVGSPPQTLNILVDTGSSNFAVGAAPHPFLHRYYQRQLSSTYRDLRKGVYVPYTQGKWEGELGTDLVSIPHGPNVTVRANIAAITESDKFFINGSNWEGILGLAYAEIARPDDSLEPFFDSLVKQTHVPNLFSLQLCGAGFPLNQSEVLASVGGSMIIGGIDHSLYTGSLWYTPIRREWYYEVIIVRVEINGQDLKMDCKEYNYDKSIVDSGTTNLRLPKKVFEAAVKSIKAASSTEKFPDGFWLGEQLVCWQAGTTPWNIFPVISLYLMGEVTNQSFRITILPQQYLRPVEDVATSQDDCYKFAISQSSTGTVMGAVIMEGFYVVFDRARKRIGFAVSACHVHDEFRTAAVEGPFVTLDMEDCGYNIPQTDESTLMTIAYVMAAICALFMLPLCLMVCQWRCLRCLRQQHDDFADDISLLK

Row | Ki (fluorogenic substrate FS-2) [nM] | Ki (20 minutes pre-incubation) [nM] | SMILES
1 | < 300 | – | Cc1csc(CN(C)C(=O)c2cc(C(=O)N[C@@H](Cc3ccccc3)[C@H](O)CNCc3cncc(C(C)C)c3)cc(-c3ccc(N(C)C)cc3)c2)n1 [Compound 298, 4′-(dimethylamino)-N3-((2S,3R)-3-hydroxy-4-((5-isopropylpyridin-3-yl)methylamino)-1-phenylbutan-2-yl)-N5-methyl-N5-((4-methylthiazol-2-yl)methyl)biphenyl-3,5-dicarboxamide]
2 | > 501 | – | COc1cccc(S(=O)(=O)NC[C@@H](O)[C@H](Cc2ccccc2)NC(=O)c2cccc(C(=O)N(C)Cc3nc(C)cs3)c2)c1 [Compound 309, N1-((2S,3R)-3-hydroxy-4-(3-methoxyphenylsulfonamido)-1-phenylbutan-2-yl)-N3-methyl-N3-((4-methylthiazol-2-yl)methyl)isophthalamide]
3 | < 300 | – | COc1cccc([C@H](C)NC[C@@H](O)[C@H](Cc2ccccc2)NC(=O)c2cc(C(=O)N(C)Cc3nc(C)cs3)cc(-c3ncco3)c2)c1 [Compound 292, N1-((2S,3R)-3-hydroxy-4-((S)-1-(3-methoxyphenyl)ethylamino)-1-phenylbutan-2-yl)-N3-methyl-N3-((4-methylthiazol-2-yl)methyl)-5-(oxazol-2-yl)isophthalamide]
4 | < 300 | – | COC(OC)C(C)c1cncc(CNC[C@@H](O)[C@H](Cc2ccccc2)NC(=O)c2cccc(C(=O)N(C)Cc3nc(C)cs3)c2)c1 (stereo partly drawn) [Compound 284, N1-((2S,3R)-4-((5-(1,1-dimethoxypropan-2-yl)pyridin-3-yl)methylamino)-3-hydroxy-1-phenylbutan-2-yl)-N3-methyl-N3-((4-methylthiazol-2-yl)methyl)isophthalamide]
5 | – | > 501 | Cc1csc(CNC(=O)c2cccc(C(=O)N[C@@H](Cc3ccccc3)[C@H](O)CNCc3ccc(CS(C)(=O)=O)c(C)n3)c2)n1 [Compound 101, N1-((2S,3R)-3-hydroxy-4-((6-methyl-5-(methylsulfonylmethyl)pyridin-2-yl)methylamino)-1-phenylbutan-2-yl)-N3-((4-methylthiazol-2-yl)methyl)isophthalamide]
6 | – | 301 to 500 | Cc1csc(CN(C)C(=O)c2cccc(C(=O)N[C@@H](Cc3ccccc3)[C@H](O)CNCc3cccc4ccccc34)c2)n1 [Compound 35, N1-((2S,3R)-3-hydroxy-4-(naphthalen-1-ylmethylamino)-1-phenylbutan-2-yl)-N3-methyl-N3-((4-methylthiazol-2-yl)methyl)isophthalamide]
7 | – | > 501 | Cc1csc(CN(C)C(=O)c2cccc(C(=O)N[C@@H](Cc3ccccc3)[C@H](O)CNC(C)c3cccnc3)c2)n1 (stereo partly drawn) [Compound 43, N1-((2S,3R)-3-hydroxy-1-phenyl-4-(1-(pyridin-3-yl)ethylamino)butan-2-yl)-N3-methyl-N3-((4-methylthiazol-2-yl)methyl)isophthalamide]
8 | – | < 300 | Cc1csc(CN(C)C(=O)c2cccc(C(=O)N[C@@H](Cc3ccccc3)[C@H](O)CNCc3cc(C(C)C)cnc3C)c2)n1 [Compound 153, N1-((2S,3R)-3-hydroxy-4-((5-isopropyl-2-methylpyridin-3-yl)methylamino)-1-phenylbutan-2-yl)-N3-methyl-N3-((4-methylthiazol-2-yl)methyl)isophthalamide]
9 | – | > 501 | Cc1csc(CN(C)C(=O)c2cccc(C(=O)N[C@@H](Cc3ccccc3)[C@H](O)CNCc3ccc(CO)c(C)n3)c2)n1 [Compound 37, N1-((2S,3R)-3-hydroxy-4-((5-(hydroxymethyl)-6-methylpyridin-2-yl)methylamino)-1-phenylbutan-2-yl)-N3-methyl-N3-((4-methylthiazol-2-yl)methyl)isophthalamide]
10 | – | < 300 | Cc1csc(CN(C)C(=O)c2cccc(C(=O)N[C@@H](Cc3ccccc3)[C@H](O)CNCc3cccc(C(C)O)c3)c2)n1 (stereo partly drawn) [Compound 160, N1-((2S,3R)-3-hydroxy-4-(3-(1-hydroxyethyl)benzylamino)-1-phenylbutan-2-yl)-N3-methyl-N3-((4-methylthiazol-2-yl)methyl)isophthalamide]
11 | – | < 300 | Cc1csc(CN(C)C(=O)c2cccc(C(=O)N[C@@H](Cc3ccccc3)[C@H](O)CNC(C)c3cccc(C(F)F)c3)c2)n1 (stereo partly drawn) [Compound 157, N1-((2S,3R)-4-(1-(3-(difluoromethyl)phenyl)ethylamino)-3-hydroxy-1-phenylbutan-2-yl)-N3-methyl-N3-((4-methylthiazol-2-yl)methyl)isophthalamide]
12 | – | > 501 | COC(=O)c1ccc(CNC[C@@H](O)[C@H](Cc2ccccc2)NC(=O)c2cccc(C(=O)N(C)Cc3nc(C)cs3)c2)nc1C [Compound 36, methyl 6-(((2R,3S)-2-hydroxy-3-(3-(methyl((4-methylthiazol-2-yl)methyl)carbamoyl)benzamido)-4-phenylbutylamino)methyl)-2-methylnicotinate]
13 | – | < 300 | COc1cccc(CNC[C@@H](O)[C@H](Cc2ccccc2)NC(=O)c2cc(OC)cc(C(=O)N(CCO)Cc3nc(C)cs3)c2)c1 [Compound 57, N1-((2S,3R)-3-hydroxy-4-(3-methoxybenzylamino)-1-phenylbutan-2-yl)-N3-(2-hydroxyethyl)-5-methoxy-N3-((4-methylthiazol-2-yl)methyl)isophthalamide]
14 | – | > 501 | COC(=O)[C@@H]1COC(c2cc(C(=O)N[C@@H](Cc3ccccc3)[C@H](O)CNCc3cccc(OC)c3)cc(C(=O)N(C)Cc3nc(C)cs3)c2)=N1 [Compound 63, (S)-methyl 2-(3-((2S,3R)-3-hydroxy-4-(3-methoxybenzylamino)-1-phenylbutan-2-ylcarbamoyl)-5-(methyl((4-methylthiazol-2-yl)methyl)carbamoyl)phenyl)-4,5-dihydrooxazole-4-carboxylate]
15 | – | < 300 | C[C@@H](NC(=O)c1cc(C(=O)N[C@@H](Cc2ccccc2)[C@H](O)CNCc2cc(C(C)(C)C)ccc2O[Si](C)(C)C(C)(C)C)cc(N(C)S(C)(=O)=O)c1)c1ccccc1 [Compound 109, N1-((2S,3R)-4-(5-tert-butyl-2-(tert-butyldimethylsilyloxy)benzylamino)-3-hydroxy-1-phenylbutan-2-yl)-5-(N-methylmethylsulfonamido)-N3-((R)-1-phenylethyl)isophthalamide]
16 | > 501 | – | Cc1csc(CN(C)C(=O)c2cccc(C(=O)N[C@@H](Cc3ccccc3)[C@H](O)CNCc3cncc(C(C)C)c3)c2O)n1 [Compound 297, 2-hydroxy-N1-((2S,3R)-3-hydroxy-4-((5-isopropylpyridin-3-yl)methylamino)-1-phenylbutan-2-yl)-N3-methyl-N3-((4-methylthiazol-2-yl)methyl)isophthalamide]
17 | < 300 | – | Cc1csc(CN(C)C(=O)c2cc(C(=O)N[C@@H](Cc3ccccc3)[C@H](O)CNCc3cccc(C(F)(F)F)c3)cc(-c3cccc(N(C)C(=O)OC(C)(C)C)c3)c2)n1 [Compound 317, tert-butyl 3′-((2S,3R)-3-hydroxy-1-phenyl-4-(3-(trifluoromethyl)benzylamino)butan-2-ylcarbamoyl)-5′-(methyl((4-methylthiazol-2-yl)methyl)carbamoyl)biphenyl-3-yl(methyl)carbamate]
18 | < 300 | – | Cc1csc(CN(C)C(=O)c2cccc(C(=O)N[C@@H](Cc3ccccc3)[C@H](O)CNCc3cncc(NC(C)C)c3)c2)n1 [Compound 304, N1-((2S,3R)-3-hydroxy-4-((5-(isopropylamino)pyridin-3-yl)methylamino)-1-phenylbutan-2-yl)-N3-methyl-N3-((4-methylthiazol-2-yl)methyl)isophthalamide]
19 | < 300 | – | Cc1csc(CN(C)C(=O)c2cc(C(=O)N[C@@H](Cc3ccccc3)[C@H](O)CNCc3cccc(C(F)(F)F)c3)cc(-c3ncco3)c2)n1 [Compound 289, N1-((2S,3R)-3-hydroxy-1-phenyl-4-(3-(trifluoromethyl)benzylamino)butan-2-yl)-N3-methyl-N3-((4-methylthiazol-2-yl)methyl)-5-(oxazol-2-yl)isophthalamide]
20 | – | > 501 | COc1cccc(CNC[C@@H](O)[C@H](Cc2ccccc2)NC(=O)c2cccc(C(=O)N(C)Cc3ccco3)c2)c1 [Compound 14, N1-(furan-2-ylmethyl)-N3-((2S,3R)-3-hydroxy-4-(3-methoxybenzylamino)-1-phenylbutan-2-yl)-N1-methylisophthalamide]
21 | < 300 | – | COc1cccc([C@H](C)NC[C@@H](O)[C@H](Cc2ccccc2)NC(=O)c2cc(C(=O)N(C)Cc3nc(C)cs3)cc(C(F)F)c2)c1 [Compound 301, 5-(difluoromethyl)-N1-((2S,3R)-3-hydroxy-4-((S)-1-(3-methoxyphenyl)ethylamino)-1-phenylbutan-2-yl)-N3-methyl-N3-((4-methylthiazol-2-yl)methyl)isophthalamide]
22 | < 300 | – | Cc1csc(CN(C)C(=O)c2cc(C(=O)N[C@@H](Cc3ccccc3)[C@H](O)CNCc3cccc(C(F)(F)F)c3)cc(-c3ccco3)c2)n1 [Compound 305, 5-(furan-2-yl)-N1-((2S,3R)-3-hydroxy-1-phenyl-4-(3-(trifluoromethyl)benzylamino)butan-2-yl)-N3-methyl-N3-((4-methylthiazol-2-yl)methyl)isophthalamide]
